Data published in ChEMBL document CHEMBL1201862, “PubChem BioAssay data set” (2004).
Values joined by “and” are separate entries in the source; they are usually repeats but may differ in a detail not shown here. Equal values may be shown once.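 How tested: cells in 96-well plates exposed to compound for 48 hours at five concentrations. GI50 = concentration required for 50% inhibition of growth.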 Active and inactive are the calls of the source. Cut-off read from the data, not from the text of the source: active = GI50 up to about 1.1 µM and inactive = higher.

Experiments:
Experiment in all cases: NCI anticancer screen, dose series, 48 h
DMS-114 = tested on: DMS-114
LXFL 529 = tested on: LXFL 529
SNB-78 = tested on: SNB-78
HOP-18 = tested on: HOP-18
KM-20L2 = tested on: KM-20L2
DMS-273 = tested on: DMS-273
DLD-1 = tested on: DLD-1
RXF 631 = tested on: RXF 631
XF498 = tested on: XF498

Measured: GI50

N#Cc1ccc(OCCSCCCCCCCCCCSCCOc2ccc(C#N)cc2)cc1
inactive: DMS-114 1.29 µM | LXFL 529 > 100 µM | SNB-78 > 100 µM | HOP-18 > 100 µM | KM-20L2 > 100 µM

NC(=S)N/N=C1\CCCC\C1=C/c1ccccc1
inactive: DMS-114 37.3 µM | DMS-273 18.5 µM | LXFL 529 31.4 µM | SNB-78 > 100 µM | HOP-18 38.2 µM | DLD-1 33.2 µM | KM-20L2 > 100 µM | RXF 631 89.3 µM

N=C(N)n1ncc(Cl)c(Cl)c1=O
inactive: DMS-114 1.85 µM | DMS-273 2.28 µM | LXFL 529 1.8 µM | SNB-78 1.98 µM | HOP-18 1.38 µM | DLD-1 2.38 µM | KM-20L2 4.33 µM | XF498 1.81 µM | RXF 631 1.81 µM

NCCCNCCSSC/C=C\CSSCCNCCCN
inactive: DMS-114 67 µM and 44.1 µM | DMS-273 43.1 µM and 44.8 µM | LXFL 529 34.9 µM and 24.9 µM | HOP-18 > 100 µM | DLD-1 37.5 µM and 60.1 µM | XF498 52.6 µM and 93.5 µM

CCOC(=O)C1N(S(=O)(=O)c2ccc(C)cc2)CCC12c1ccccc1N(C(C)=O)C2C(/C=C/C(=O)OC)=C/C(=O)OC (stereo not given)
inactive: DMS-114 > 100 µM | DMS-273 89.9 µM | LXFL 529 > 100 µM | SNB-78 > 100 µM | DLD-1 > 100 µM | KM-20L2 > 100 µM | XF498 > 100 µM

C/C(=N\Nc1ccc([N+](=O)[O-])cc1)C(=O)N(C)Nc1ccccc1
inactive: DMS-114 48 µM | DMS-273 69.8 µM | LXFL 529 52.6 µM | HOP-18 > 100 µM | DLD-1 > 100 µM | KM-20L2 60.4 µM | XF498 63.1 µM

COc1ccc(/C=c2/sc3n(c2=O)NC2(CCCCC2)NN=3)cc1
inactive: DMS-273 > 100 µM | LXFL 529 > 100 µM | SNB-78 > 100 µM | DLD-1 > 100 µM | KM-20L2 > 100 µM | XF498 > 100 µM

COC(=O)C1C(=O)N(CCc2c[nH]c3ccccc23)C[C@@H]2CCC(=O)C[C@H]12 (stereo not given in full)
inactive: DMS-114 > 100 µM | DMS-273 > 100 µM | LXFL 529 > 100 µM | SNB-78 > 100 µM | DLD-1 > 100 µM | XF498 > 100 µM | RXF 631 > 100 µM

O=C(CN(c1ccccc1)c1ccccc1)N1c2ccccc2C2C=CC=CC21 (stereo not given)
inactive: DMS-114 7.38 µM | DMS-273 22 µM | LXFL 529 16 µM | SNB-78 36.8 µM | HOP-18 25.6 µM | DLD-1 25.6 µM | KM-20L2 24.2 µM | XF498 19.6 µM

CC1CC[C@]2(C(=O)O)CCC3(COC(=O)/C=C\c4ccc(O)cc4)C(=CCC4[C@@]5(C)CC[C@H](O)C(C)(C)C5CC[C@]43C)[C@@H]2[C@H]1C (stereo not given in full)
inactive: DMS-114 25.7 µM | DMS-273 20.3 µM | LXFL 529 22.7 µM | SNB-78 > 100 µM | HOP-18 27.5 µM | DLD-1 10.8 µM | KM-20L2 18.4 µM | RXF 631 24.4 µM

CC(=O)NC1=C(NCCC(C)C)C(=O)c2ccccc2C1=O
inactive: DMS-273 > 50 µM | LXFL 529 > 50 µM | SNB-78 > 50 µM | DLD-1 > 50 µM | KM-20L2 > 50 µM | XF498 > 50 µM

CC12CCC[C@@](C)(C(=O)OC3OC(CO)C(O)C(O)C3O)[C@H]1CCC13CC4CC(OC4(CO)[C@H]1O)[C@@H]23 (stereo not given in full)
inactive: DMS-114 24.9 µM | DMS-273 > 100 µM | LXFL 529 > 100 µM | SNB-78 > 100 µM | HOP-18 > 100 µM | DLD-1 > 100 µM | KM-20L2 > 100 µM | XF498 > 100 µM | RXF 631 > 100 µM

CC1CC2C3CC(F)C4=CC(=O)C=CC4(C)C3(F)C(O)CC2(C)C1(O)C(=O)CO (stereo not given)
inactive: DMS-114 > 100 µM | DMS-273 > 100 µM | SNB-78 > 100 µM | DLD-1 > 100 µM | KM-20L2 > 100 µM | XF498 > 100 µM | RXF 631 > 100 µM

O=C(CCC(=O)C1Cc2ccccc2C1=O)Nc1cccc(C(F)(F)F)c1 (stereo not given)
inactive: DMS-273 > 100 µM | LXFL 529 > 100 µM | SNB-78 > 100 µM | HOP-18 > 100 µM | DLD-1 > 100 µM | KM-20L2 > 100 µM | RXF 631 > 100 µM

COC1(OC)CCCCC2c3cccc(OC(C)=O)c3C21OC(C)=O (stereo not given)
inactive: DMS-114 > 100 µM | DMS-273 > 100 µM | LXFL 529 > 100 µM | SNB-78 > 100 µM | HOP-18 > 100 µM | DLD-1 > 100 µM | XF498 29.2 µM

O=C1CC(c2ccc(Cl)cc2)=Nc2ccccc2N1
inactive: DMS-114 81.5 µM | DMS-273 79.1 µM | LXFL 529 > 100 µM | SNB-78 86.7 µM | HOP-18 40.9 µM | DLD-1 > 100 µM | KM-20L2 > 100 µM | RXF 631 74.6 µM

N#CC(C(=O)CCC(=O)C(C#N)c1ccccc1)c1ccccc1 (stereo not given)
inactive: DMS-114 > 100 µM | DMS-273 > 100 µM | LXFL 529 > 100 µM | SNB-78 > 100 µM | HOP-18 > 100 µM | DLD-1 > 100 µM | XF498 > 100 µM

CCOc1ccccc1NC(=O)C(=O)CC(=O)c1c(C)[n+]([O-])c2ccccc2[n+]1[O-]
inactive: DMS-114 > 100 µM | DMS-273 > 100 µM | LXFL 529 > 100 µM | SNB-78 > 100 µM | HOP-18 46.5 µM | KM-20L2 75.7 µM

CCOC(=O)C(C)(C)Oc1ccc2c(=O)cc(-c3ccccc3)oc2c1
inactive: DMS-114 17.9 µM | LXFL 529 19 µM | SNB-78 26.7 µM | HOP-18 22.8 µM | KM-20L2 24.2 µM

O=C(Nc1ccc(Cl)c(Cl)c1)C1C(=O)N(c2ccc(Cl)c(Cl)c2)C(=O)/C1=N\O (stereo not given)
inactive: DMS-114 30.3 µM | DMS-273 > 100 µM | LXFL 529 > 100 µM | SNB-78 > 100 µM | HOP-18 > 100 µM | DLD-1 > 100 µM | KM-20L2 43.5 µM

CCOC(=O)CCC(NC(=O)c1ccc(/N=C/c2nc3cc(C(F)(F)F)ccc3nc2-c2ccccc2)cc1)C(=O)OCC (stereo not given)
inactive: DMS-114 34.3 µM | DMS-273 > 100 µM | LXFL 529 43.1 µM | SNB-78 10 µM | HOP-18 > 100 µM | DLD-1 > 50 µM | KM-20L2 > 50 µM | XF498 2.81 µM

CN(C)CCNc1ccc2ncn3c4ccccc4c(=O)c1c23
inactive: DMS-114 2.02 µM | LXFL 529 2.7 µM | SNB-78 3.04 µM | HOP-18 1.17 µM | DLD-1 1.96 µM | KM-20L2 2.13 µM

NC(=O)c1c2c(cc3c(=O)c4ccccc4[nH]c13)CCCC2
inactive: DMS-114 > 100 µM | DMS-273 > 100 µM | LXFL 529 > 100 µM | HOP-18 > 100 µM | DLD-1 > 73.1 µM | KM-20L2 > 100 µM | XF498 > 100 µM | RXF 631 > 100 µM

COC(=O)C(Cc1nc2ccccc2nc1O)C(NO)C(=O)Nc1c(Cl)cc([N+](=O)[O-])cc1Cl (stereo not given)
inactive: DMS-114 21.2 µM | SNB-78 40.8 µM | DLD-1 28.9 µM

NC(=O)c1ccc(Cl)c([N+](=O)[O-])c1
inactive: DMS-114 > 100 µM | DMS-273 > 100 µM | LXFL 529 > 100 µM | SNB-78 > 100 µM | HOP-18 > 100 µM | DLD-1 > 100 µM | KM-20L2 > 100 µM | XF498 > 100 µM

COC(=O)c1c/c(=N\NC(=O)CC(=O)Nc2ccccc2OC)c2ccccc2o1
inactive: DMS-114 > 100 µM | DMS-273 > 100 µM | LXFL 529 > 100 µM | SNB-78 > 100 µM | HOP-18 15.2 µM | DLD-1 > 100 µM | KM-20L2 > 100 µM
